One assay has as its system MCF7 cells. In words: CS-BLI cell viability assay, MCF7. Format: cell-based.
A further assay concerns the target eIF4E (Homo sapiens, UniProt P06730). Briefly: eIF4E degradation in HEK293T cells by immunoblotting. As to conditions: 0.1-10 μM for 24 h, and 1 μM for 0.5 h to 24 h. Format: cell-based.
Another assay concerns Kelly cells proteome. Briefly: Global quantitative proteomics in Kelly cells. It counts as cell-based, human. The following applies: 1 μM, 5 hours, relative to DMSO.
For assay [1], the target named is eIF4E (GST-eIF4E) / fluorescein-labelled eIF4G peptide (Homo sapiens, UniProt P06730). Briefly: Fluorescence polarization assay for displacement of eIF4G peptide from eIF4E. It counts as binding. The following applies: three concentrations: 33, 100 and 300 μM. (In general: In fluorescence polarisation assays a small probe gives low polarisation when free and higher when bound to something large.)

Another assay concerns the target Cereblon (CRBN) (Homo sapiens, UniProt Q96SW2). Briefly: Cellular Cereblon engagement assay. It counts as cell-based.
The target in the next assay is GB1-eIF4E (Homo sapiens, UniProt P06730). Briefly: Solution NMR titration. The following applies: 15N-labelled GB1-eIF4E 100 μM, compound 50, 100 and 300 μM.
GB1-eIF4E, sequence (P06730 whole entry): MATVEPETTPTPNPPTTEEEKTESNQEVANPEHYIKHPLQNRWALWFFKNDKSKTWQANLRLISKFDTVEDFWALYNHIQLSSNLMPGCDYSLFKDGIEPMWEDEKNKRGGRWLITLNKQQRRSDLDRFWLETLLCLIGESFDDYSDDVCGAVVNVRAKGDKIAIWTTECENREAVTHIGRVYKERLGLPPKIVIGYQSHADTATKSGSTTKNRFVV

eIF4E, sequence (P06730 whole entry): as above
eIF4E (GST-eIF4E) / fluorescein-labelled eIF4G peptide, sequence (P06730 whole entry): as above
Cereblon (CRBN), sequence (Q96SW2 whole entry): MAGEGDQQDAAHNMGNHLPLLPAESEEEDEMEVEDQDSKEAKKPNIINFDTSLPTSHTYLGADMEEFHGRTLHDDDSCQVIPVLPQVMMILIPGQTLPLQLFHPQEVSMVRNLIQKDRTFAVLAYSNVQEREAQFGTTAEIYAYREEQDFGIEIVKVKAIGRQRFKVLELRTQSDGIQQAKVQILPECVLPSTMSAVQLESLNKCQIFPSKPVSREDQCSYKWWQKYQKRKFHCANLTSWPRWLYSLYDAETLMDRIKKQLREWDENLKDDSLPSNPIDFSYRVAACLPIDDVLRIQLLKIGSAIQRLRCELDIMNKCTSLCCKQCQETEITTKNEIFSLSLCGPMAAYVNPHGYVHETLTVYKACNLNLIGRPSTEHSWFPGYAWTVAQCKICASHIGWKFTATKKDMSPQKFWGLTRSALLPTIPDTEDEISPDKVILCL

With `O=C(O)C(Cc1ccccc1[N+](=O)[O-])=NNc1nc(-c2ccc(Cl)c(Cl)c2)cs1` [4EGI-1, reference compound], in the assay with MCF7 cells, the “decrease in viability (IC50) at 72 h as compared to 24 h” value is 2 fold.

For the molecule `O=C(O)/C(Cc1ccccc1[N+](=O)[O-])=N\Nc1nc(-c2ccc(-c3ccccc3)cc2)cs1` [i4EG-BiP], the “decrease in viability (IC50) at 72 h as compared to 24 h” value in the assay with MCF7 cells is “more than 3 fold”.

On to `C/C(=N\Nc1nc(-c2ccc(Cl)c(Cl)c2)c(CC(=O)NCCNc2cccc3c2C(=O)N(C2CCC(=O)NC2=O)C3=O)s1)C(=O)OCOC(=O)C(C)(C)C` (centres unmarked) [d4E-6], for which the “degradation of eIF4E by immunoblotting” value at eIF4E was “neither experiment showed significant degradation of eIF4E”.

With `C/C(=N\Nc1nc(-c2ccc(-c3ccccc3)cc2)cs1)C(=O)NCCCCNc1cccc2c1C(=O)N(C1CCC(=O)NC1=O)C2=O` (centres unmarked) [d4E-2], in the assay on Kelly cells proteome, the “change in protein expression, IMiD neo-substrates” value is “downregulation of C2H2 zinc finger targets, SALL4, ZNF692 and ZNF827”.

Turning to `O=C(COc1cccc2c1C(=O)N(C1CCC(=O)NC1=O)C2=O)NCCCCNC(=O)Cc1sc(N/N=C(\Cc2ccccc2[N+](=O)[O-])C(=O)O)nc1-c1ccc(Cl)c(Cl)c1` (centres unmarked) [d4E-1], the “displacement of the 4G peptide compared with 4EGI-1” value in assay [1] is “displaced the 4G peptide in a similar manner”.

On to `O=C1CCC(N2C(=O)c3cccc(NCCCCNC(=O)/C(=N\Nc4nc(-c5ccc(-c6ccccc6)cc5)cs4)c4ccccc4[N+](=O)[O-])c3C2=O)C(=O)N1` (centres unmarked) [d4E-3], for which the “fold less active than d4E-2 in cellular CRBN engagement” value on Cereblon (CRBN) is reported as “approximately 8 fold”.

Turning to `C/C(=N\Nc1nc(-c2ccc(-c3ccccc3)cc2)cs1)C(=O)NCCNc1cccc2c1C(=O)N(C1CCC(=O)NC1=O)C2=O` (centres unmarked) [d4E-4], on GB1-eIF4E, the “chemical shift perturbations (CSPs) on titration” value is “Significant CSPs were observed in both cases at the binding interface”. In addition, on eIF4E, the “degradation of eIF4E by immunoblotting” value was “neither experiment showed significant degradation of eIF4E”.

For the origin of these results see article PMC8846605 (European journal of medicinal chemistry, 2021).
